Test results published in the supplement of paper PMC10307832.

Key:
Experiment in all cases: relative viability (nuclei count vs DMSO), 5 days (fraction); higher = more cells survive
[1] = compound: N#CC1(c2ccc(NC(=O)c3cccnc3NCc3ccncc3)cc2)CCCC1 [Apatinib] + C[C@@H](Oc1cc(-c2cnn(C3CCNCC3)c2)cnc1N)c1c(Cl)ccc(F)c1Cl [Crizotinib] (partner 1 µM)
How it was run: (§1)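 Lung cancer cell lines were pin-tool dosed in 1536-well plates on the day after seeding, with either a lone drug or a fixed anchor-drug dose plus five library-drug doses (not always all listed) in √10 steps. Nuclei were counted on 4× images after 5 days. Relative viability is the ratio of treated-well to vehicle-well nuclei counts, with each value a median of duplicate plates.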

[2] = compound: CN(C)C(=N)NC(=N)N [Metformin] + CC(=O)c1c(C)c2cnc(Nc3ccc(N4CCNCC4)cn3)nc2n(C2CCCC2)c1=O [Palbociclib] (partner 0.5 µM)
How it was run: as §1

[3] = compound: CN(C)C(=N)NC(=N)N [Metformin] + CC1(C)CCC(c2ccc(Cl)cc2)=C(CN2CCN(c3ccc(C(=O)NS(=O)(=O)c4ccc(N[C@H](CCN5CCOCC5)CSc5ccccc5)c(S(=O)(=O)C(F)(F)F)c4)cc3)CC2)C1 [Navitoclax] (partner 0.5 µM)
How it was run: as §1

[4] = compound: N#CC1(c2ccc(NC(=O)c3cccnc3NCc3ccncc3)cc2)CCCC1 [Apatinib] + C[C@]1(O)C[C@@H](c2nc(-c3ccc4ccc(-c5ccccc5)nc4c3)c3c(N)nccn32)C1 [Linsitinib] (partner 1 µM)
How it was run: as §1

Row | Cell Line | relative viability ([1]; first compound 0.08 µM) | relative viability ([1]; first compound 0.253 µM) | relative viability ([1]; first compound 0.8 µM) | relative viability ([1]; first compound 2.53 µM) | relative viability ([1]; first compound 8 µM) | relative viability ([2]; first compound 10 µM) | relative viability ([2]; first compound 31.62 µM) | relative viability ([2]; first compound 100 µM) | relative viability ([2]; first compound 316.23 µM) | relative viability ([2]; first compound 1000 µM) | relative viability ([3]; first compound 10 µM) | relative viability ([3]; first compound 31.62 µM) | relative viability ([3]; first compound 100 µM) | relative viability ([3]; first compound 316.23 µM) | relative viability ([3]; first compound 1000 µM) | relative viability ([4]; first compound 0.08 µM) | relative viability ([4]; first compound 0.253 µM) | relative viability ([4]; first compound 0.8 µM) | relative viability ([4]; first compound 2.53 µM) | relative viability ([4]; first compound 8 µM)
1 | NCI-H2087 | 0.89 | 0.799 | 0.741 | 0.614 | 0.7 | 0.263 | 0.226 | 0.268 | 0.218 | 0.235 | 0.951 | 0.86 | 0.96 | 0.782 | 0.834 | 1.07 | 0.925 | 0.907 | 0.924 | 0.716
2 | NCI-H647 | 1.18 | 1.23 | 1 | 0.846 | 0.737 | 0.222 | 0.436 | 0.555 | 0.382 | 0.417 | 0.869 | 1.13 | 1.44 | 1.12 | 0.763 | 1.32 | 1.18 | 1.01 | 1.04 | 1.02
3 | NCI-H1437 | 1.01 | 1 | 0.92 | 0.726 | 0.632 | 0.384 | 0.459 | 0.439 | 0.389 | 0.4 | 1.08 | 1.08 | 1.12 | 0.979 | 1.08 | 1.03 | 1.06 | 0.879 | 0.653 | 0.475
4 | SW 1573 | 0.946 | 0.867 | 0.748 | 0.74 | 0.58 | 0.378 | 0.364 | 0.321 | 0.252 | 0.264 | 0.878 | 0.835 | 1.11 | 0.994 | 1.1 | 0.898 | 0.784 | 0.979 | 0.885 | 0.854
5 | BEN | 0.957 | 1 | 0.94 | 0.671 | 0.65 | 0.503 | 0.529 | 0.523 | 0.436 | 0.456 | 0.0532 | 0.0708 | 0.0914 | 0.0748 | 0.0712 | 0.864 | 0.933 | 0.88 | 0.81 | 0.699
6 | EKVX | 0.793 | 1.06 | 0.941 | 0.654 | 0.671 |  | 0.312 | 0.355 | 0.384 | 0.357 | 0.681 | 0.889 | 0.968 | 0.779 | 0.948 | 1.04 | 1.09 | 0.985 | 0.862 | 0.795
7 | NCI-H2347 | 0.795 | 0.751 | 0.772 | 0.578 | 0.645 | 0.443 | 0.453 | 0.404 | 0.382 | 0.408 | 0.633 | 0.694 | 0.802 | 0.746 | 0.716 | 1 | 0.888 | 1.01 | 0.932 | 0.9
8 | H3255 | 0.956 | 0.841 | 0.907 | 0.723 | 0.786 | 0.309 | 0.35 | 0.307 | 0.309 | 0.321 | 0.503 | 0.623 | 0.571 | 0.531 | 0.355 | 1.17 | 0.819 | 0.954 | 0.896 | 0.836
9 | LU99A | 0.585 | 0.55 | 0.526 | 0.444 | 0.458 | 0.387 | 0.352 | 0.347 | 0.35 | 0.31 | 0.693 | 0.743 | 0.677 | 0.814 | 0.749 | 0.589 | 0.549 | 0.515 | 0.457 | 0.47
10 | HCC-44 | 0.807 | 0.858 | 0.779 | 0.716 | 0.705 |  | 0.917 | 0.959 | 0.93 | 0.887 | 0.99 | 1.08 | 0.957 | 0.888 | 1.06 | 0.673 | 0.759 | 0.66 | 0.711 | 0.592
11 | EPLC-272H | 0.944 | 0.933 | 0.767 | 0.8 | 0.991 | 0.294 | 0.32 | 0.339 | 0.311 | 0.391 | 1.23 | 1.1 | 1.04 | 1.1 | 1.4 | 1.19 | 1.07 | 1.23 | 1.23 | 1.12
12 | EMC-BAC-2 | 0.726 | 0.73 | 0.764 | 0.633 | 0.475 | 0.499 | 0.547 | 0.502 | 0.496 | 0.423 | 1.1 | 1.17 | 1.1 | 1.09 | 1.15 | 0.815 | 0.816 | 0.766 | 0.72 | 0.78
13 | NCI-H1355 | 1.04 | 1.03 | 1.03 | 0.943 | 0.815 | 0.341 | 0.36 | 0.382 | 0.358 | 0.383 | 0.936 | 1.02 | 0.955 | 0.719 | 0.903 | 0.97 | 0.863 | 0.802 | 0.685 | 0.666
14 | RERF-LC-KJ | 0.776 | 0.834 | 0.778 | 0.704 | 0.629 | 0.907 | 1.04 | 0.896 | 0.823 | 0.993 | 1.08 | 1.15 | 0.752 | 0.833 | 0.745 | 0.908 | 0.908 | 0.821 | 0.845 | 0.757
15 | SK-LU-1 | 1.04 | 0.806 | 0.761 | 0.785 | 0.566 | 0.358 | 0.388 | 0.365 | 0.358 | 0.367 | 0.891 | 0.777 | 0.976 | 0.926 | 0.953 | 1.1 | 1.3 | 1.04 | 0.809 | 0.787
16 | HARA | 1.04 | 0.944 | 1.05 | 1.05 | 0.806 | 0.323 | 0.297 | 0.442 | 0.279 | 0.394 | 1.13 | 1.1 | 1.2 | 1.02 | 1.16 | 1.04 | 0.983 | 0.994 | 0.995 | 0.882
17 | NCI-H1792 | 0.97 | 0.988 | 0.949 | 0.96 | 0.832 |  | 0.663 | 0.817 | 0.698 | 0.238 |  | 0.528 | 0.857 | 0.538 | 0.617 | 0.719 | 0.51 | 0.502 | 0.491 | 0.641
18 | HCC-366 | 0.437 | 0.587 | 0.605 | 0.466 | 0.547 | 0.342 | 0.376 | 0.309 | 0.31 | 0.334 | 1.12 | 1.12 | 1.06 | 0.991 | 1.06 | 0.899 | 0.732 | 0.571 | 0.678 | 0.616
19 | HCC-827 | 0.969 | 0.887 | 0.767 | 0.83 | 0.575 | 0.452 | 0.501 | 0.481 | 0.469 | 0.615 |  | 0.96 | 0.982 | 0.923 | 1.01 | 0.995 | 0.937 | 1.01 | 0.956 | 0.737
20 | NCI-H2126 | 1.03 | 0.945 | 1.07 | 0.957 | 0.894 | 0.399 | 0.349 | 0.307 | 0.322 | 0.328 | 0.788 | 0.834 | 0.842 | 0.771 | 0.787 | 0.733 | 0.69 | 0.675 | 0.631 | 0.652
21 | LK-2 | 0.243 | 0.218 | 0.212 | 0.237 | 0.242 | 0.86 | 0.837 | 0.706 | 0.718 | 0.877 | 0.86 | 1.15 | 1.2 | 0.933 | 1.2 | 0.602 | 0.356 | 0.631 | 0.503 | 0.399
22 | COR-L23 | 0.627 | 0.647 | 0.648 | 0.52 | 0.565 | 0.237 | 0.289 | 0.218 | 0.208 | 0.249 | 0.984 | 0.839 | 0.909 | 0.932 | 1.04 | 1.09 | 0.927 | 0.931 | 0.746 | 0.713
23 | NCI-H1915 | 0.945 | 0.864 | 0.855 | 0.819 | 0.78 |  | 0.406 | 0.515 | 0.462 | 0.463 |  | 0.794 | 0.702 | 0.749 | 0.806 | 1.15 | 1.02 | 1.08 | 1.06 | 0.921
24 | NCI-H2228 | 0.542 | 0.418 | 0.506 | 0.42 | 0.262 | 0.626 | 0.782 | 0.747 | 0.526 | 0.946 | 1.02 | 1.04 |  | 0.815 | 1.05 | 0.708 | 0.501 | 0.521 | 0.629 | 0.629
25 | NCI-H23 | 0.49 | 0.578 | 0.421 | 0.49 | 0.57 | 0.583 | 0.563 | 0.495 | 0.508 | 0.553 | 0.82 | 0.902 | 0.805 | 0.839 | 0.993 | 0.694 | 0.652 | 0.501 | 0.568 | 0.542
26 | NCI-H1734 | 0.67 | 0.812 | 0.76 | 0.596 | 0.579 | 0.284 | 0.329 | 0.292 | 0.359 | 0.371 | 0.882 | 0.863 | 0.908 | 0.822 | 0.905 | 0.969 | 1.04 | 0.897 | 0.738 | 0.809
27 | NCI-H2405 | 0.936 | 0.863 | 0.883 | 0.762 | 0.811 |  | 0.498 | 0.485 | 0.487 | 0.344 | 0.869 | 1.26 | 0.988 | 1.07 | 1.09 | 1.05 | 1.12 | 1.05 | 0.95 | 0.955
